Like-named read-outs stand apart in the source and are kept apart here.
Tests used:
Scurfy mice [1] = system: Scurfy mice
Description: (§1) Scurfy phenotype was obtained by backcrossing on B6. 129S7-Rag1tm1Mom/J background, allowing generation of homozygous XSf/XSfRag1−/− female. Crossing of these females with WT C57BL/6J mice result in the birth only of diseased XSf/Y.Rag1−/+male.
(§2) First, scurfy mice were treated with an immunosuppressor: Temsirolimus (LC laboratories, Woburn, USA) was injected S.C at the dose of 2 mg/kg at day 8 and day 10 after birth. This treatment was continued twice a week in some experiment. Anti-CD3 Fab'2 (clone 145-2C11, BioXCell, West Lebanon, USA) was injected S.C at 20 μg/day during 5 days at day 8 after birth. Cyclophosphamide (European Pharmacopoeia (EP) Reference Standard, Merck KGaA, Darmstadt, Germany) was injected I.P. at 50, 100, or 150 mg/kg 10 days after birth. At day 10 or day 14, CD4^+CD25^+CD45.1^+cells (containing putative Tregs) or engineered CD4^+T cells (Foxp3.LNGFR or LNGFR) from Scurfy mice were injected at 0.5×10^6, 0.75×10^6 or 1×10^6 of cells respectively via I.P injections. […] In indicated experiments, together with cells, Proleukin (human IL-2, aldesleukine, Novartis) was injected at 1.000 UI/g via I.P and during 5 days then once a week.
(§3) As shown in FIGS. 1-7, the inventors compared 7 different experimental protocols to identify the one allowing to test the efficacy of Treg to treat Scurfy autoimmune syndrome. Tregs were sorted on the basis of CD4 and CD25 expression from CD45.1 congenic B6 mice and injected at a dose of 5×10^5 intra-peritoneally at day 10 or 14. The criteria was the scurfy score measured every 3 to 4 days from birth and when signs of efficiency evidenced improved scores for mice transplanted with Tregs, survival was followed. Three drugs were tested as conditioning regimens: Temsirolimus, subcutaneously injected at a dose of 2 mg/kg daily from day 4 to day 28 or from day 4 to day 9 (post-birth), anti-CD3 Fab'2, subcutaneously injected at a dose of 20 micrograms/recipient, daily from day 8 to day 12, Cyclophosphamide at 3 different doses (50, 100 and 150 mg/kg) injected at day 10.

Scurfy mice [2] = test: Survival of Scurfy mice; type: in vivo
Description: as §1, §2
Values are represented as means ±SD, unless stated otherwise. GraphPad Prism 6.0 was used for all statistical analyses. P value was calculated with a confidence interval of 95% to indicate the statistical significance between groups. Statistical test included non-parametric Mann-Whitney test, Fischer exact test or two ways ANOVA depending on the dataset. A P value <0.05 was considered statistically significant. Statistically significant differences between groups are noted in figures with asterisks (*p<0.05, **p<0.01, ***p<0.001, ****p<0.0001). Correlations were performed with a non-parametric Spearman correlation. Survival was analyzed with Log-rank test (Mantel-Cox).
as §3

CD4+ T cells = test: T cell depletion after immunosuppressive drug; parameters: species or system mice; details: mouse, in vivo
Description: as §2

Scurfy mice [3] = system: Scurfy mice; remark: listed apart in the source
Description: as §2, §3

[4] = first series, Cy 50 mg/kg conditioned Scurfy mice

Molecule	scurfy score (Scurfy mice [1]; Temsirolimus twice a week starting at disease onset (day 8), drug alone)	improvement of Scurfy score after the infusion of Tregs (Scurfy mice [1]; drug used as conditioning regimen, 5×10^5 Tregs i.p. at day 10 or 14)	life expectancy (Scurfy mice [2]; Temsirolimus twice a week starting at day 8)	effect on auto-immunity in Scurfy settings (Scurfy mice [1]; low dose IL-2, 1.000 UI/g)	mean survival (Scurfy mice [2]; [4])	scurfy score (Scurfy mice [1]; mouse, in vivo)	delay of the death of scurfy mice (Scurfy mice [2]; cyclophosphamide at all doses (50, 100 and 150 mg/kg) at day 10, no cells)	survival following Cy injection (Scurfy mice [2]; increased from 30 (untreated mice) to 90 days, p=0.01)	mean survival (Scurfy mice [2]; second series, 90 days of follow-up)	CD4 T cells nadir (time after injection) (CD4+ T cells)	T cells depletion across doses (CD4+ T cells)	cell count normalized (time after injection) (CD4+ T cells)	general toxicity (Scurfy mice [3]; 50 mg/kg at day 10)	general toxicity revealed by the health status of the mice (Scurfy mice [3]; 100 and 150 mg/kg at day 10)	toxicity observed (Scurfy mice [3]; Cy 50, 100 or 150 at day 10, correlated with dose)	toxicities in young animals (Scurfy mice [3]; even low dose of Cy)
CO[C@H]1C[C@@H]2CC[C@@H](C)[C@@](O)(O2)C(=O)C(=O)N2CCCC[C@H]2C(=O)O[C@H]([C@H](C)C[C@@H]2CC[C@@H](OC(=O)C(C)(CO)CO)[C@H](OC)C2)CC(=O)[C@H](C)/C=C(\C)[C@@H](O)[C@@H](OC)C(=O)[C@H](C)C[C@H](C)/C=C/C=C/C=C/1C [Temsirolimus]	reduction of Scurfy score	did not allow to reveal any improvement	doubling of life expectancy	–	–	–	–	–	–	–	–	–	–	–	–	–
IL-2: Proleukin (human IL-2, aldesleukine, Novartis)	–	–	–	did not worsen auto-immunity	51 days	–	–	–	–	–	–	–	–	–	–	–
O.O=P1(N(CCCl)CCCl)NCCCO1 (centres unmarked) [Cyclophosphamide, 2-[bis(2-chloroethyl)amino]-tetrahydro-2H-1,3,2-oxazaphosphorine-2-oxide monohydrate]	–	–	–	–	39 days	more stable scurfy score	more than 60 days	90 days	47 days	4 days	not different with the three doses	10 days	absent	general toxicity	growth retardation and a transient alopecia	alopecia and growth retardation
